US20250273333A1, “Methods and Apparatus for Diagnosis of Progressive Kidney Function Decline Using a Machine Learning Model” (ICAHN SCHOOL OF MEDICINE AT MOUNT SINAI, priority 2020, published 2025)
Values joined by “and” are separate entries in the source; they are usually repeats but may differ in a detail not shown here. Equal values may be shown once.

Experiments:
Format in all cases: in vivo, human
[1] = test system: participants with type 2 diabetes and prevalent DKD; assay: CANVAS trial post hoc analysis: chronic eGFR slope, canagliflozin vs placebo, by risk strata
Procedure: (§1) Blood and urine samples for exploratory biomarker research can be stored during the CANVAS trial. In some instances, participants can be randomly assigned using a central web-based response system in a 1:1:1 ratio to treatment with 100 mg canagliflozin, 300 mg canagliflozin, or matching placebo. In some instances, participants can be assigned to treatment with canagliflozin or placebo followed for a median of 6.1 years. All participants, care providers, trial staff, and outcome assessors can be blinded to treatment allocation for the duration of the study. KidneyIntelX algorithm can be indicated for individuals with type 2 diabetes and prevalent DKD, defined by an eGFR ≥30 to 59.9 ml/min/1.73 m2 (G3a and G3b) or those with eGFR ≥60 ml/min/1.73 m2 with a UACR ≥30 mg/g to assess the risk for progressive decline in kidney function within a time period (e.g., 5 years). Thus, for analyses, the subgroup of the CANVAS population can be restricted to meet criteria for prevalent DKD at a time of enrollment.
(§2) A composite kidney outcome for such post hoc analysis can be defined as: A) progressive decline in kidney function (rapid kidney function decline (e.g., RKFD; with eGFR decline of ≥5 ml/min/year)); B) a sustained 40% decline of eGFR; or C) kidney failure defined as an eGFR <15 mL/min/1.73 m^2 or need for dialysis or kidney transplantation. In CANVAS, eGFR measurements were available at baseline, 6 weeks and annually. Since hemodynamic effects of SGLT2i on acute changes in eGFR, the anchor/baseline to define progressive decline in kidney function and 40% decline in eGFR for participants in the canagliflozin arm can be the eGFR value at 6 weeks. In some instances, when the eGFR value meet ≥40% decline from baseline only on the last eGFR obtained in the CANVAS protocol, then the event can be adjudicated by a blinded adjudication committee to determine qualification as a valid event. In some instances, eGFR slopes can be determined by linear mixed models.
To explore whether baseline KidneyIntelX scores modified the treatment effect of canagliflozin versus placebo on the composite kidney outcome and chronic eGFR compared to the treatment effect as per the baseline KDIGO risk strata, tests for heterogeneity can be performed by adding interaction terms between KidneyIntelX or KDIGO and randomized treatment assignment to the relevant logistic regression models for the categorical outcome and mixed linear models for the eGFR slopes. The treatment effect of canagliflozin versus placebo on KidneyIntelX risk scores over time can be assessed by calculating the difference of change in risk values generated by the KidneyIntelX algorithm (e.g., using the diagnosis device 101) between treatment arms using mixed linear models. […]

[2] = test system: participants with type 2 diabetes and prevalent DKD; assay: CANVAS trial post hoc analysis: KidneyIntelX risk score over time, canagliflozin vs placebo
Procedure: Blood and urine samples for exploratory biomarker research can be stored during the CANVAS trial. In some instances, participants can be randomly assigned using a central web-based response system in a 1:1:1 ratio to treatment with 100 mg canagliflozin, 300 mg canagliflozin, or matching placebo. In some instances, participants can be assigned to treatment with canagliflozin or placebo followed for a median of 6.1 years. All participants, care providers, trial staff, and outcome assessors can be blinded to treatment allocation for the duration of the study. […]
Continuous baseline variables with normal distributions can be reported as means with standard deviations (SDs). […] Risk values can be calculated by the KidneyIntelX (using the diagnosis device 101) on the participants in the placebo and canagliflozin arms of CANVAS with prevalent DKD, with the inputs as per the currently commercially available test which include the following: baseline TNFR-1, TNFR-2 and KIM-1 levels, TNFR-2/TNFR-1 ratio, KIM-1/TNFR-1 ratio, eGFR, UACR, HbA1C, systolic BP, AST, platelets, and serum calcium. […] Therefore, by determining proportion experiencing the composite kidney event within the categorical risk strata and used logistic regression, the relative odds of the endpoint for high vs. low risk and intermediate risk score strata can be determined. […]

[3] = test system: participants with type 2 diabetes and prevalent DKD; assay: CANVAS trial post hoc analysis: composite kidney outcome, canagliflozin vs placebo, by KidneyIntelX risk strata; settings: for incidence of the composite kidney outcome: canagliflozin arm
Procedure: as §1, §2
Continuous baseline variables with normal distributions can be reported as means with standard deviations (SDs). Variables with skewed distributions can be reported as median values with interquartile range (IQRs) and can be natural logarithm transformed before analysis. Furthermore, categorical variables can be reported as percentages. Risk values can be calculated by the KidneyIntelX (using the diagnosis device 101) on the participants in the placebo and canagliflozin arms of CANVAS with prevalent DKD, with the inputs as per the currently commercially available test which include the following: baseline TNFR-1, TNFR-2 and KIM-1 levels, TNFR-2/TNFR-1 ratio, KIM-1/TNFR-1 ratio, eGFR, UACR, HbA1C, systolic BP, AST, platelets, and serum calcium. The risk score cutoffs that were previously validated can applied to the CANVAS participants with DKD and available baseline plasma. Each individual can be allocated a predicted probability of the composite outcome using the baseline inputs as per the risk value generated by the KidneyIntelX algorithm and a continuous KidneyIntelX score between 5 and 100 in increments of 5. For example, consistent with the pre-defined commercial cut offs, participants with a risk value between 5 and 45 can be classified as “low risk”, between 50 and 85 can be classified as “intermediate risk”, and those with a risk value between 90 and 100 can be classified as “high risk”. Therefore, by determining proportion experiencing the composite kidney event within the categorical risk strata and used logistic regression, the relative odds of the endpoint for high vs. low risk and intermediate risk score strata can be determined.
Proportion of participants that experienced composite kidney outcome by KidneyIntelX algorithm risk strata can be compared to a proportion as classified by participants' Kidney Disease Improving Global Outcomes (KDIGO) KDIGO risk strata based on their baseline eGFR and UACR value. […]

With `Cc1ccc([C@@H]2O[C@H](CO)[C@@H](O)[C@H](O)[C@H]2O)cc1Cc1ccc(-c2ccc(F)cc2)s1` [canagliflozin, (2S,3R,4R,5S,6R)-2-[3-[[5-(4-fluorophenyl)thiophen-2-yl]methyl]-4-methylphenyl]-6-(hydroxymethyl)oxane-3,4,5-triol] the “difference in chronic eGFR slope, canagliflozin vs. placebo (protection for eGFR decline)” value ([1]; high risk KidneyIntelX stratum) was 2.16 ml/min/1.73 m2, the “difference in chronic eGFR slope, canagliflozin vs. placebo” value ([1]; highest risk KDIGO stratum) was 1.31 ml/min/1.73 m2 and the “difference in chronic eGFR slope, canagliflozin vs. placebo (protection for eGFR decline)” value ([1]; low risk KidneyIntelX stratum) was 0.66 ml/min/1.73 m2. The “difference in chronic eGFR slope, canagliflozin vs. placebo (protection for eGFR decline)” value ([1]; moderate/intermediate risk KidneyIntelX stratum) was 1.52 ml/min/1.73 m2, the “duration of effect on KidneyIntelX” value ([2]; over follow-up, vs placebo (FIG. 24)) was “persisted over time until the end of follow-up” and the “decrease of KidneyIntelX from baseline to one year” value ([2]; randomized to canagliflozin, 95% CI -6.9 to -3.9, placebo increased 6.2%, p<0.001) was 5.4%. For the same molecule, the “RR for composite kidney outcome, canagliflozin vs. placebo” value ([3]; all participants with baseline biomarkers, 95% CI 0.49, 0.99) was 0.70, the “incidence of the composite kidney outcome” value (“incidence” for short) ([3]; high risk KidneyIntelX stratum) was 23.0% and 23.5% and the “incidence” value ([3]; intermediate risk KidneyIntelX stratum, mean follow-up 5.6 years) was 9.5%. For the same molecule, the “incidence” value ([3]; low risk KidneyIntelX stratum, mean follow-up 5.6 years) was 3.6%, the “composite kidney outcome occurrence” value ([3]; canagliflozin group, all participants with baseline biomarkers (placebo 11.6%)) was 8.9% and the “RR for the kidney outcome, canagliflozin vs. placebo” value ([3]; high-risk KidneyIntelX stratum, 95% CI 0.38-1.18) was 0.67. The “absolute risk reduction (ARR) for composite kidney outcome” value ([3]; high-risk KidneyIntelX stratum, vs placebo arm 31.4%) was 7.9%, the “RR for the kidney outcome, canagliflozin vs. placebo” value ([3]; intermediate KidneyIntelX stratum, 95% CI 0.36-0.98) was 0.59 and the “RR for the kidney outcome, canagliflozin vs. placebo” value ([3]; low-risk KidneyIntelX stratum, 95% CI 0.54-5.08) was 1.65.
